These results are taken from ChEMBL document CHEMBL5120882, “Medicinal Chemistry Perspective on Targeting Mono-ADP-Ribosylating PARPs with Small Molecules” (J Med Chem, 2022).

pIC50: −log10 of the molar value.

Assay [1] concerns NCI-H1373. The experiment in a line: Antitumor activity against human NCI-H1373 cells in xenograft model assessed as tumor growth inhibition relative to control. The format is functional. Also noted: scale not given: the % may be the effect or the level left.
The target of assay [2] is Protein mono-ADP-ribosyltransferase PARP9 (Homo sapiens, UniProt Q8IXQ6). The experiment in a line: Inhibition of PARP9 (unknown origin).
The target in assay [3] is T1, Protein mono-ADP-ribosyltransferase PARP16 (Homo sapiens, UniProt Q8N5Y8).
T1 sequence (Q8N5Y8 whole entry): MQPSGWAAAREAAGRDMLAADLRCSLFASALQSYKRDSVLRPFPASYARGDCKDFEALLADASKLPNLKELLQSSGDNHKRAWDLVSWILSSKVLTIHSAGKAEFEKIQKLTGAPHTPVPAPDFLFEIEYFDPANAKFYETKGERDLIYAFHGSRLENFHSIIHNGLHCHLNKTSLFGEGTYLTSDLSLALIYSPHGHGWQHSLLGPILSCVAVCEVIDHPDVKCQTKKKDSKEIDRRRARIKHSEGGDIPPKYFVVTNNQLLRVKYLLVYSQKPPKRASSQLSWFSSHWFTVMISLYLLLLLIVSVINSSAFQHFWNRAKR
The experiment in a line: Inhibition of PARP16 (unknown origin) using IRE-1 as substrate incubated for 1 hr by chemiluminescence assay.

Assay [4] addresses T2, Protein mono-ADP-ribosyltransferase PARP3 (Homo sapiens, UniProt Q9Y6F1).
T2 sequence (Q9Y6F1 whole entry): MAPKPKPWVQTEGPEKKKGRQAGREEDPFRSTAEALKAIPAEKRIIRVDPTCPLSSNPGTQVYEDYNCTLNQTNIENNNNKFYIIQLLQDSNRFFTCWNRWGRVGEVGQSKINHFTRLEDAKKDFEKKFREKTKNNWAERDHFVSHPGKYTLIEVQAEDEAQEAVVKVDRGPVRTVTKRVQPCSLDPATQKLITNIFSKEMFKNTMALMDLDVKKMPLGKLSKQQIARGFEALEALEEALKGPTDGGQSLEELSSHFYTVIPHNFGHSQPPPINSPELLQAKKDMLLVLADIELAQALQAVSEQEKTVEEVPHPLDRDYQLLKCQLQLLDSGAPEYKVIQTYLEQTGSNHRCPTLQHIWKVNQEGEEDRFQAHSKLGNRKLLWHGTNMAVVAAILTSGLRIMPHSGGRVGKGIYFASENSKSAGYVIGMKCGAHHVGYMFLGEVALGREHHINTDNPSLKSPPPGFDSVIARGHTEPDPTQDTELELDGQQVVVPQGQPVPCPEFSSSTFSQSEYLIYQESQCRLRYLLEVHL
The experiment in a line: Inhibition of recombinant human PARP3 using IRE-1 as substrate incubated for 1 hr by chemiluminescence assay.

Turning to `C[C@@H](COCCC(=O)N1CCN(c2ncc(C(F)(F)F)cn2)CC1)Nc1cn[nH]c(=O)c1C(F)(F)F` [ATAMPARIB], the Activity in assay [1] stood at 49%. This molecule showed a pIC50 in assay [2] of less than 4.30.

As for `Nc1ncc2c(n1)CNC(=O)c1[nH]c(Br)c(Br)c1-2`, the figures for the pIC50 in assay [3] and in assay [4] were 6.37 and 5.47, respectively.
